This is an account of results in patent US4071559A, “Pharmaceutically active 2-omega-aminoalkoxydiphenyls” (Mitsubishi Chemical Industries Limited, priority 1975, dated 1978).

Counter-ions that a name gives are not always drawn.

For data set [1], the system named is reserpine induced hypothermia. Briefly: Antagonism of reserpine induced hypothermia in mice (antireserpine / antidepressant activity). The format is in vivo. As to conditions: i.p.; for Antireserpine activity, Relative Potency: reserpine 5 mg/kg i.p., Amitriptyline = 1.
Procedure: (§1) The compounds were administered intraperitoneally and the activities of the compounds were compared with those of Amitriptyline.
The nature of the next data set: in vivo. Conditions: mouse, ip.
The next data set relates to neurological deficit. Briefly: Traction test (neurological deficit; muscle relaxant action; CNS depressant activity). The format is in vivo. Conditions: mice; for ED50: Mus musculus, ip, traction test.
For data set [2], the system named is spontaneous motor activity. Briefly: Spontaneous motor activity by ANIMEX apparatus (CNS depressant activity). The format is in vivo. Conditions: Mus musculus, ip, mice, i.p., read-out: Spontaneous Motor Activity Depression ED50.
For another data set, the system named is tremorine induced tremor. Briefly: Tremorine induced tremor in mice (central anticholinergic effect). Conditions: for ED50: Mus musculus, ip, tremorine induced tremor, read-out: Antitremorine Effect ED50. The format is in vivo.
Data set [3] deals with electroshock induced tonic extensor. Briefly: Antagonism of electroshock induced tonic extensor (anticonvulsant activity). The format is in vivo. As to conditions: Mus musculus, ip; mice; dose which prevents 50% of response.
A further data set deals with mice. As to conditions: i.p., compared with Amitriptyline.

One may read the LD50 as the dose expected to kill half of the subjects tested. Higher therefore signals a less toxic substance. As usually defined, the ED50 is the midpoint of the dose-response relation.

Procedure for tremorine induced tremor: as §1

As for `NCCCCOc1ccccc1-c1ccccc1` [2-(4-aminobutoxy)diphenyl hydrochloride], in data set [1], the “Antireserpine activity, Relative Potency” value came to 0.59. In “in vivo”, this compound displayed an LD50 of 137 mg/kg. Also, the ED50 in the data set on neurological deficit came out at 50 mg/kg; in data set [2], 40 mg/kg; with tremorine induced tremor, 60 mg/kg; in data set [3], 14 mg/kg.

Regarding `CN(C)CCCCOc1ccccc1-c1ccccc1` [2-(4-dimethylaminobutoxy)diphenyl hydrochloride], in data set [1], the “Antireserpine activity, Relative Potency” value turned out to be 0.45. The same compound gave an LD50 in “in vivo” of 100 mg/kg.

Take `CNCCCCOc1ccccc1-c1ccccc1` [2-(4-methylaminobutoxy)diphenyl hydrochloride]: the “toxicity (in words)” value in the data set on mice was “low toxicity”. Besides, the “antireserpine activity (in words)” value in data set [1] (compared with Amitriptyline) is listed as “comparable to that of Amitriptyline”. Moreover, the “Antireserpine activity, Relative Potency” value in data set [1] was 0.99. Further, the 50% lethal dose (LD50) in the data set “in vivo” is 78 mg/kg. In addition, the median effective dose (ED50) in the data set on neurological deficit was 40 mg/kg; in data set [2] it was 30 mg/kg; in the data set on tremorine induced tremor, 20 mg/kg; in data set [3], 14 mg/kg. Further, in the data set with neurological deficit (i.p., traction test and spontaneous motor activity), the “CNS depressant action (in words)” value is listed as “weak”. The “anticholinergic action (in words)” value in the data set with tremorine induced tremor (i.p., compared with Amitriptyline) was “weak”.
